System: 242566-281-R-J2-PDC complex spheroid viability
Assay: Anticancer human tumor 242566-281-R-J2-PDC patient-derived pancreatic carcinoma cell line growth inhibition [RAS]
Conditions: for IC50: curve of first compound; for viability, T/C: stronger effect = lower value; active = viability on the fitted dose curve at most 10% of control; inactive = the rest
How it was run: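 Multi-cell-type spheroids: tumor cells plus HUVEC endothelial cells and mesenchymal stem cells. RAS-pathway inhibitors were combined with targeted agents, each dosed in half-log steps down from clinical Cmax, or from 10 microM when Cmax was unknown.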

[1] = second compound 0.00316 µM, first compound 0.000949 µM
[2] = second compound 0.00316 µM, first compound 0.003 µM
[3] = second compound 0.00316 µM, first compound 0.00949 µM
[4] = second compound 0.00316 µM, first compound 0.03 µM
[5] = second compound 0.00316 µM, first compound 0.0949 µM
[6] = second compound 0.00316 µM, first compound 0.3 µM
[7] = second compound 0.01 µM, first compound 0.000949 µM
[8] = second compound 0.01 µM, first compound 0.003 µM
[9] = second compound 0.01 µM, first compound 0.00949 µM
[10] = second compound 0.01 µM, first compound 0.03 µM
[11] = second compound 0.01 µM, first compound 0.0949 µM
[12] = second compound 0.01 µM, first compound 0.3 µM
[13] = second compound 0.0316 µM, first compound 0.000949 µM
[14] = second compound 0.0316 µM, first compound 0.003 µM
[15] = second compound 0.0316 µM, first compound 0.00949 µM
[16] = second compound 0.0316 µM, first compound 0.03 µM
[17] = second compound 0.0316 µM, first compound 0.0949 µM
[18] = second compound 0.0316 µM, first compound 0.3 µM
[19] = second compound 0.1 µM, first compound 0.000949 µM
[20] = second compound 0.1 µM, first compound 0.003 µM
[21] = second compound 0.1 µM, first compound 0.00949 µM
[22] = second compound 0.1 µM, first compound 0.03 µM
[23] = second compound 0.1 µM, first compound 0.0949 µM
[24] = second compound 0.1 µM, first compound 0.3 µM
[25] = second compound 0.316 µM, first compound 0.000949 µM
[26] = second compound 0.316 µM, first compound 0.003 µM
[27] = second compound 0.316 µM, first compound 0.00949 µM
[28] = second compound 0.316 µM, first compound 0.03 µM
[29] = second compound 0.316 µM, first compound 0.0949 µM
[30] = second compound 0.316 µM, first compound 0.3 µM
[31] = second compound 1 µM, first compound 0.000949 µM
[32] = second compound 1 µM, first compound 0.003 µM
[33] = second compound 1 µM, first compound 0.00949 µM
[34] = second compound 1 µM, first compound 0.03 µM
[35] = second compound 1 µM, first compound 0.0949 µM
[36] = second compound 1 µM, first compound 0.3 µM
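Also: spheroids exposed to compound for 7 days before readout.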
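For viability, T/C in this document: 100% = DMSO vehicle control wells.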

CC1(C)CCC(Nc2ncc(C(F)(F)F)c(-c3c[nH]c4c(P(C)(C)=O)c(C#N)ccc34)n2)CN1 (stereo unspecified) + C=CC(=O)N1CCN(c2nc(OCC3CCCN3C)nc3c(F)c(-c4nc(N)cc(C)c4C(F)(F)F)c(Cl)cc23)C(C)C1
> 300 nM: IC50 (second compound 0.00316 µM) | IC50 (second compound 0.01 µM) | IC50 (second compound 0.0316 µM) | IC50 (second compound 0.1 µM) | IC50 (second compound 0.316 µM) | IC50 (second compound 1 µM)
inactive: viability, T/C [1] 109% | viability, T/C [2] 161% | viability, T/C [3] 154% | viability, T/C [4] 128% | viability, T/C [5] 146% | viability, T/C [6] 135% | viability, T/C [7] 137% | viability, T/C [8] 151% | viability, T/C [9] 142% | viability, T/C [10] 124% | viability, T/C [11] 158% | viability, T/C [12] 129% | viability, T/C [13] 114% | viability, T/C [14] 173% | viability, T/C [15] 133% | viability, T/C [16] 113% | viability, T/C [17] 138% | viability, T/C [18] 132% | viability, T/C [19] 151% | viability, T/C [20] 130% | viability, T/C [21] 103% | viability, T/C [22] 137% | viability, T/C [23] 138% | viability, T/C [24] 144% | viability, T/C [25] 152% | viability, T/C [26] 144% | viability, T/C [27] 147% | viability, T/C [28] 109% | viability, T/C [29] 143% | viability, T/C [30] 149% | viability, T/C [31] 130% | viability, T/C [32] 139% | viability, T/C [33] 142% | viability, T/C [34] 123% | viability, T/C [35] 128% | viability, T/C [36] 121%

CCc1c2c(nc3ccc(O)cc13)-c1cc3c(c(=O)n1C2)COC(=O)[C@]3(O)CC + C=CC(=O)N1CCN(c2nc(OCC3CCCN3C)nc3c(F)c(-c4nc(N)cc(C)c4C(F)(F)F)c(Cl)cc23)C(C)C1
inactive: viability, T/C [1] 94% | viability, T/C [2] 121% | viability, T/C [3] 84.4% | viability, T/C [4] 51% | viability, T/C [5] 27.1% | viability, T/C [6] 13.1% | viability, T/C [7] 103% | viability, T/C [8] 133% | viability, T/C [9] 82.4% | viability, T/C [10] 56.1% | viability, T/C [11] 26.9% | viability, T/C [12] 12.3% | viability, T/C [13] 112% | viability, T/C [14] 132% | viability, T/C [15] 83.3% | viability, T/C [16] 67.1% | viability, T/C [17] 32.3% | viability, T/C [18] 11.8% | viability, T/C [19] 111% | viability, T/C [20] 129% | viability, T/C [21] 104% | viability, T/C [22] 54% | viability, T/C [23] 23.1% | viability, T/C [24] 16% | viability, T/C [25] 105% | viability, T/C [26] 137% | viability, T/C [27] 77.1% | viability, T/C [28] 63.7% | viability, T/C [29] 28.8% | viability, T/C [30] 14.7% | viability, T/C [31] 104% | viability, T/C [32] 114% | viability, T/C [33] 86.7% | viability, T/C [34] 66% | viability, T/C [35] 32.7% | viability, T/C [36] 10.9%
50.8 nM: IC50 (second compound 1 µM)
34.8 nM: IC50 (second compound 0.01 µM)
40.9 nM: IC50 (second compound 0.316 µM)
34.5 nM: IC50 (second compound 0.1 µM)
31.6 nM: IC50 (second compound 0.00316 µM)
48.8 nM: IC50 (second compound 0.0316 µM)

C=CC(=O)Nc1cc(Nc2nccc(-c3cn(C)c4ccccc34)n2)c(OC)cc1N(C)CCN(C)C + CCn1c(-c2cc(N3CCN(C)CC3)cnc2C(C)OC)c2c3cc(ccc31)-c1csc(n1)CC(NC(=O)C1CC1C)C(=O)N1CCCC(N1)C(=O)OCC(C)(C)C2
inactive: viability, T/C (second compound 0.000949 µM, first compound 0.00316 µM) 90.9% | viability, T/C (second compound 0.000949 µM, first compound 0.01 µM) 90% | viability, T/C (second compound 0.000949 µM, first compound 0.0316 µM) 61.8% | viability, T/C (second compound 0.000949 µM, first compound 0.1 µM) 75.8% | viability, T/C (second compound 0.000949 µM, first compound 0.316 µM) 51.8% | viability, T/C (second compound 0.000949 µM, first compound 1 µM) 25.3% | viability, T/C (second compound 0.003 µM, first compound 0.00316 µM) 76% | viability, T/C (second compound 0.003 µM, first compound 0.01 µM) 61.4% | viability, T/C (second compound 0.003 µM, first compound 0.0316 µM) 54.9% | viability, T/C (second compound 0.003 µM, first compound 0.1 µM) 52.2% | viability, T/C (second compound 0.003 µM, first compound 0.316 µM) 35.2% | viability, T/C (second compound 0.003 µM, first compound 1 µM) 19% | viability, T/C (second compound 0.00949 µM, first compound 0.00316 µM) 48.4% | viability, T/C (second compound 0.00949 µM, first compound 0.01 µM) 40.9% | viability, T/C (second compound 0.00949 µM, first compound 0.0316 µM) 41.2% | viability, T/C (second compound 0.00949 µM, first compound 0.1 µM) 30.7% | viability, T/C (second compound 0.00949 µM, first compound 0.316 µM) 21.2% | viability, T/C (second compound 0.00949 µM, first compound 1 µM) 15.3% | viability, T/C (second compound 0.03 µM, first compound 0.00316 µM) 31.3% | viability, T/C (second compound 0.03 µM, first compound 0.01 µM) 30.7% | viability, T/C (second compound 0.03 µM, first compound 0.0316 µM) 24% | viability, T/C (second compound 0.03 µM, first compound 0.1 µM) 22% | viability, T/C (second compound 0.03 µM, first compound 0.316 µM) 14.8% | viability, T/C (second compound 0.03 µM, first compound 1 µM) 16.7% | viability, T/C (second compound 0.0949 µM, first compound 0.00316 µM) 21.2% | viability, T/C (second compound 0.0949 µM, first compound 0.01 µM) 20.6% | viability, T/C (second compound 0.0949 µM, first compound 0.0316 µM) 20.1% | viability, T/C (second compound 0.0949 µM, first compound 0.1 µM) 18.1% | viability, T/C (second compound 0.0949 µM, first compound 0.316 µM) 13% | viability, T/C (second compound 0.0949 µM, first compound 1 µM) 15.9% | viability, T/C (second compound 0.3 µM, first compound 0.00316 µM) 18.6% | viability, T/C (second compound 0.3 µM, first compound 0.01 µM) 18.2% | viability, T/C (second compound 0.3 µM, first compound 0.0316 µM) 15.7% | viability, T/C (second compound 0.3 µM, first compound 0.1 µM) 14% | viability, T/C (second compound 0.3 µM, first compound 0.316 µM) 14.6% | viability, T/C (second compound 0.3 µM, first compound 1 µM) 14.9%
323 nM: IC50 (second compound 0.000949 µM)
71.6 nM: IC50 (second compound 0.003 µM)
< 3.16 nM: IC50 (second compound 0.00949 µM) | IC50 (second compound 0.03 µM) | IC50 (second compound 0.0949 µM) | IC50 (second compound 0.3 µM)

From PubChem BioAssay AID2060910 (Molecular Pharmacology Branch, DTP, NCI, 2025)
